Experimental findings from patent US9206206B2, “Oxidized lipid compounds and uses thereof” (Vascular Biogenics Ltd., priority 2008, dated 2015) are described below.

The subject of data set [1] is tyrosine phosphorylation in primary macrophages. Briefly: Tyrosine phosphorylation assay in primary macrophages (Western blot). It counts as cell-based, mouse. The procedure:
(§1) Tyrosine Phosphorylation Assay: Tyrosine phosphorylation in macrophages or bone marrow-derived cells (BMDCs) of mice was assayed. Mouse primary macrophages were isolated from the peritoneum of 7-8 week old C57BL/6 female mice following thioglycollate stimulation. […] Mouse primary bone marrow-derived cells were isolated by flushing bone marrow out of the femur and tibia of female SJL mice using cold RPMI-1640. […] Cells were then washed, resuspended in the same buffer and depleted of B and T cells on a Midi-Macs separation unit through a LD or LS column (Miltenyi Biotech). […] The medium was replaced every other day. […] Proteins with phosphorylated tyrosine were then observed by Western blot, using a monoclonal anti-phosphotyrosine antibody. Western blotting for ERK1/2 or α-tubulin was performed as a control for protein loading.
(Immunoblotting shows a protein as a band on a membrane.)

Data set [2] concerns tyrosine phosphorylation in bone marrow-derived cells. Briefly: Tyrosine phosphorylation assay in bone marrow-derived cells (Western blot). It counts as cell-based, mouse. The conditions noted are these: 20 μg/ml (33 μM). On the procedure:
as §1

Data set [3] concerns IL12/23 p40. Kind of data set: In vitro IL12/23p40 production assay. Type of data set: cell-based, mouse. The conditions noted are these: bone marrow-derived cells. The procedure:
In Vitro IL12/23p40 Production Assay:
Bone marrow derived cells (BMDCs) were obtained from the femur and tibia of female C57BL mice, cultured, and seeded at a concentration of 10^6 cells/ml 5-6 days post-culturing, as described hereinabove for the tyrosine phosphorylation assay.
The tested compound was then added to the cells for 1 hour at a concentration of 1, 2.5, 5, 10 or 20 μg/ml. The cells were activated for IL12/23p40 production by incubation for 24 hours with 10 μg/ml peptidoglycan (PGN). Cytokine production from the supernatant was measured by ELISA. Activated cells without the tested compound were used as the control.

The subject of data set [4] is mouse peritoneal macrophages. Briefly: In vitro toxicity assay. The conditions noted are these: for LD50: crystal violet cell number. Type of data set: cell-based. The procedure:
Thioglycollate-elicited mouse peritoneal macrophages were washed, counted and seeded (2×10^5 to 3×10^5 cells per well in 24-well plates) in triplicate wells in medium containing RPMI-1640, L-glutamine, 10% FBS and antibiotics (penicillin/streptomycin). After a recovery period of 24 hours, the tested compound (or controls) was added to the cell medium at doses of 2, 10, 20, 50, 100 or 150 μg/ml, keeping the added volume equal in all treatments by complementing the volume with solvent.
Following addition of the compounds, the cells were incubated for an additional 24 hours, after which the cells were washed, fixed with a solution of 10% methanol/10% acetic acid and stained with crystal violet (0.4% in 20% ethanol). Cell numbers were measured by determining optical density at 595 nm. Cells incubated with vehicle (PBS with 1% ethanol) were used as a control, to which cell numbers in treated samples were normalized.
Data are presented as mean±standard deviation. Statistical significance relative to vehicle-treated cells was calculated using a student's t-test, with p-values of less than 0.05 being considered as indicating statistical significance.

[5] abbreviates: compound 1, 2.5, 5, 10 or 20 μg/ml for 1 hour, then 10 μg/ml peptidoglycan 24 hours, ELISA.
Where [6] appears, read: peritoneal macrophages, 24 hours.
Setting [7] is: peritoneal macrophages, 24 hours, up to 150 μg/ml.
[8] abbreviates: peritoneal macrophages, 24 hours, only one of two experiments.

Several values for one entry are separate records, joined by “and”; a condition that tells them apart may be missing. Equal entries are not always repeated. Where two headings read alike, the source gives them in different places. Bounds are passed on as bounds.

With `CCCCCCCCCCCCCCCCSCC(COP(=O)([O-])OCC[N+](C)(C)C)OCCCCC(=O)O` (stereo not shown) [1-S-CI-201, 1-S-hexadecyl-2-(4-carboxy)butyl-glycero-3-phosphocholine], the phosphotyrosine levels result in data set [1] (10 μg/ml, 10 minutes) was “little effect, if any”; in data set [1] (20 μg/ml, 10 minutes) it was “caused a reduction in phosphotyrosine levels”.
With `CCCCCCCCCCCCCCCCOC[C@H](COP(=O)([O-])OCC[N+](C)(C)C)OCCCCCCC(=O)O` [(R)-CI-203, (R)-1-hexadecyl-2-(6-carboxy)hexanyl-sn-glycero-3-phosphocholine], the phosphotyrosine levels result in data set [2] was “caused a reduction in phosphotyrosine levels”.
Consider `CCCCCCCCCCCCCCCCCCCCOCC(COP(=O)(O)OCCN)OCCCCC(=O)O` (stereo not shown) [CI-220, 1-eicosanyl-2-(4-carboxy)butyl-glycero-3-phosphoethanolamine], for which the phosphotyrosine levels result in data set [1] (10 μg/ml, 10 minutes) is on record as “little effect, if any”; in data set [1] (20 μg/ml, 10 minutes), “caused a reduction in phosphotyrosine levels”.
Take `CCCCCCCCCCCCOCC(COP(=O)([O-])OCC[N+](C)(C)C)OCCCCC(=O)O` (stereo not shown) [CI-209, 1-dodecyl-2-(4-carboxy)butyl-glycero-3-phosphocholine]: in data set [3] (setting [5]), the “production of IL12/23 p40” value was “inhibited production of IL12/23 p40 by bone marrow-derived cells in a dose-dependent manner”. For the same compound, the phosphotyrosine levels result in data set [1] (20 μg/ml, 10 minutes) is listed as “induced an increase in phosphotyrosine levels”. For the same compound, the LD50 result in data set [4] (setting [6]) is “above 150 μg/ml and > 286 μM”. Also, the “toxicity within the range of tested doses” value (shortened to “toxicity within the range”) in data set [4] (setting [7]) is reported as “toxicity of CI-209 was not observed at any of the tested doses”.
For `CCCCCCCCCCCCCCCCOCC(COP(=O)([O-])OCC[N+](C)(C)C)OCCCC(=O)O` (stereo not shown) [CI-205, 1-hexadecyl-2-(3-carboxy)propyl-glycero-3-phosphocholine], the phosphotyrosine levels entry in data set [1] (20 μg/ml, 10 minutes) is given as “causes reduction in phosphotyrosine levels”. The “dose at which (significant) toxicity was detected” value in data set [4] (peritoneal macrophages, 24 hours, doses 2-150 μg/ml) stood at 100 µg/mL. For the same compound, the “dose at which toxicity was detected in only one experiment” value (shortened to “dose at which toxicity was detected”) in data set [4] (setting [8]) lay within 20 to 50 µg/mL.
As to `CCCCCCCCCCCCCCCCOCC(COP(=O)(O)OCCN)OCCCC(=O)O` (stereo not shown) [CI-206, 1-hexadecyl-2-(3-carboxy)propyl-glycero-3-phosphoethanolamine], in data set [1] (20 μg/ml, 10 minutes), the phosphotyrosine levels entry is given as “causes reduction in phosphotyrosine levels”. The “dose at which (significant) toxicity was detected” value in data set [4] (mouse, 24 h) is not below 50 µg/mL.
Consider `CCCCCCCCCCCCCCCCOCC(COP(=O)([O-])OCC[N+](C)(C)C)OCCCCC(=O)OC` (stereo not shown) [CI-208, 1-hexadecyl-2-(4-methylcarboxy)butyl-glycero-3-phosphocholine], for which the phosphotyrosine levels entry in data set [1] (20 ng/ml) is “causes a reduction in phosphotyrosine levels, which is stronger than the reduction caused by treatment with 20 ng/ml of the CI-201 control”. Further, the “dose at which toxicity was detected” value in data set [4] (mouse, 24 h) is 20 µg/mL.
On to `CCCCCCCCCCCCCCCCOCC(COP(=O)(O)OCC(N)C(=O)O)OCCCCC(=O)O` (stereo not shown) [VB-223, 1-hexadecyl-2-(4-carboxy)butyl-glycero-3-phosphoserine], for which the phosphotyrosine levels result is “perhaps also” in data set [1] (1 μg/ml, 10 minutes); “induction of tyrosine phosphorylation” in data set [1] (5 μg/ml, 10 minutes); “induction of tyrosine phosphorylation” in data set [1] (10 μg/ml, 10 minutes); “induction of tyrosine phosphorylation” in data set [1] (20 μg/ml, 10 minutes).
Turning to `CCCCCCCCCCCCCCCCOCC(COP(=O)([O-])OCC[N+](C)(C)C)OCCCCC(OCC)OCC` (stereo not shown) [diEtAc, 1-hexadecyl-2-(5′,5′-diethoxypentyl)-glycero-3-phosphocholine], in data set [4] (mouse, 24 h), the “dose at which (significant) toxicity was detected” value is not below 20 µg/mL and the “dose at which toxicity was detected” value was 10 µg/mL.
In the case of `CCCCCCCCCCCCCCCCOCC(COP(=O)([O-])OCC[N+](C)(C)C)OCCC(=O)O` (stereo not shown) [CI-217, 1-Hexadecyl-2-(2-carboxy)ethyl-glycero-3-phosphocholine], the phosphotyrosine levels entry is recorded as “little effect” in data set [1] (10 μg/ml, 10 minutes) and “caused a reduction in phosphotyrosine levels” in data set [1] (20 μg/ml, 10 minutes).
On to `CCCCCCCCCCCCCCCCOCC(COP(=O)(O)OCCNC(=O)CCCC(=O)O)OCCCCC(=O)O` (stereo not shown) [CI-210, 1-hexadecyl-2-(4-carboxy)butyl-glycero-3-phosphoethanolamine-N-glutaric acid], for which the “production of IL12/23 p40” value in data set [3] (setting [5]) is “inhibited production of IL12/23 p40 by bone marrow-derived cells in a dose-dependent manner”. Further, the phosphotyrosine levels result in data set [1] (20 μg/ml, 10 minutes) is reported as “induced an increase in phosphotyrosine levels”. In data set [4] (mouse, 24 h), the “dose at which (significant) toxicity was detected” value is not below 100 µg/mL and the “dose at which significant toxicity was observed” value is not below 156.6 µM. Moreover, the LD50 entry in data set [4] (setting [6]) is “approximately 150 μg/ml and ~235 μM”.
As to “1-(2-octyl)dodecyl-2-(4-carboxy)butyl-glycero-3-phosphoethanolamine [VB-222]”, the phosphotyrosine levels result is on record as “induction of tyrosine phosphorylation” in data set [1] (10 μg/ml, 10 minutes) and “induction of tyrosine phosphorylation” in data set [1] (20 μg/ml, 10 minutes).
For `C[N+](C)(C)CCOP(=O)([O-])OCC(COCCCCCCCCCCCCCCCC(=O)O)OCCCCC(=O)O` (stereo not shown) [CI-213, 1-(15′-carboxy)pentadecyl-2-(4-carboxy)butyl-glycero-3-phosphocholine], in data set [4] (peritoneal macrophages, 24 hours, only one experiment), the “dose at which a significant decrease in cell number was detected in only one experiment” value came out at 163.5 µM. In addition, in data set [4] (setting [8]), the “dose at which toxicity was detected” value was found to be 100 µg/mL. In addition, the “toxicity within the range” value in data set [4] (setting [7]) is on record as “did not clearly exhibit significant toxicity within the range of tested doses”.
As to `CCCCCCCCCCCCCCCCCCOCC(COP(=O)(O)OCCN)OCCCCC(=O)O` (stereo not shown) [CI-216, 1-octadecyl-2-(4-carboxy)butyl-glycero-3-phosphoethanolamine], the “production of IL12/23 p40” value in data set [3] (20 μg/ml) was “inhibited production of IL12/23 p40 by bone marrow-derived cells”. In addition, the phosphotyrosine levels result is “induction of tyrosine phosphorylation” in data set [1] (10 μg/ml, 10 minutes) and “reduction in phosphotyrosine levels” in data set [1] (20 μg/ml, 10 minutes).
As to `CCCCCCCCCCCCCCCCOCC(COP(=O)(O)O)OCCCCC(=O)O` (stereo not shown) [CI-201-PA, 1-hexadecyl-2-(4-carboxy)butyl-glycero-3-phosphate], in data set [4] (mouse, 24 h), the “dose at which (significant) toxicity was detected” value is not below 20 µg/mL and the “dose at which toxicity was detected” value came out at 10 µg/mL. For the same compound, the LD50 entry in data set [4] (setting [6]) is on record as “approximately 50 μg/ml”.
Turning to `NCCOP(=O)(O)OCC(COCCCCCCCCCCCCCCCC(=O)O)OCCCCC(=O)O` (stereo not shown) [CI-214, 1-(15′-carboxy)pentadecyl-2-(4-carboxy)butyl-glycero-3-phosphoethanolamine], in data set [4], the “toxicity within the range” value is “did not clearly exhibit significant toxicity within the range of tested doses”. In data set [4] (mouse, 24 h), the “dose at which a significant decrease in cell number was detected in only one experiment” value was 175.5 µM and the “dose at which toxicity was detected” value stood at 100 µg/mL.
In the case of “1-(2-octyl)dodecyl-2-(4-carboxy)butyl-glycero-3-phosphocholine [VB-221]”, the phosphotyrosine levels result in data set [1] (5 ng/ml (8 μM)), in data set [1] (10 ng/ml (16 μM)) and in data set [1] (20 ng/ml) was “induction of tyrosine phosphorylation” in each case.
On to `CCCCCCCCCCCCCCCCCCCCOCC(COP(=O)([O-])OCC[N+](C)(C)C)OCCCCC(=O)O` (stereo not shown) [CI-219, 1-eicosanyl-2-(4-carboxy)butyl-glycero-3-phosphocholine], for which the phosphotyrosine levels result is given as “little effect, if any” in data set [1] (10 μg/ml, 10 minutes) and “caused a reduction in phosphotyrosine levels” in data set [1] (20 μg/ml, 10 minutes).
Take `CCCCCCCCCCCCCCCCCCOCC(COP(=O)([O-])OCC[N+](C)(C)C)OCCCCC(=O)O` (stereo not shown) [CI-215, 1-octadecyl-2-(4-carboxy)butyl-glycero-3-phosphocholine]: the phosphotyrosine levels result in data set [1] (10 μg/ml, 10 minutes) is “induced an increase in phosphotyrosine levels”; in data set [1] (20 μg/ml, 10 minutes) it was “caused a decrease in phosphotyrosine levels”.
Take `CCCCCCCCCCCCCCCCSCC(COP(=O)(O)OCCN)OCCCCC(=O)O` (stereo not shown) [1-S-CI-202, 1-S-hexadecyl-2-(4-carboxy)butyl-glycero-3-phosphoethanolamine]: the phosphotyrosine levels result in data set [1] (10 μg/ml, 10 minutes) is “caused an increase in phosphotyrosine levels”; in data set [1] (20 μg/ml, 10 minutes) it was “caused a reduction in phosphotyrosine levels”.
